Results from patent US12213977B2, “Methods and compositions for treating melanoma” (THE REGENTS OF THE UNIVERSITY OF CALIFORNIA, priority 2017, dated 2025).
“Also recorded” adds a separate entry of the source. Where a SMILES comes first, the peptide text is derived from it. The star is where a group is joined. Cbz = O=C(OCc1ccccc1)*; CH2F = FC*

B1: IFNγ: Recombinant IFNγ, cytokine secreted by T cells, obtained from Peprotech (protein, UniProt P01579 24-161, looked up)
Interferon gamma: QDPYVKEAENLKKYFNAGHSDVADNGTLFLGILKNWKEESDRKIMQSQIVSFYFKLFKNFKDDQSIQKSVETIKEDMNVKFFNSNKKKRDDFEKLTNYSVTDLNVQRKAIHELIQVMAELSPAAKTGKRKRSQMLFRG

Assays:
melanoma cell lines [1] = assay: CTRP pharmacogenomics drug sensitivity (AUC) across melanoma cell lines grouped by predicted differentiation subtype; format: cell-based; settings: for specificity of cell death-inducing compound for dedifferentiated melanoma cells: CTRP drug sensitivity profiles by subtype; for sensitivity (CTRP AUC) with increased dedifferentiation status: melanoma cell lines by predicted subtype, ANOVA P<0.01, irrespective of mutation status
Description: Through the prediction of subtypes from the CCLE and GDSC dataset, the inventors utilized the matching drug sensitivity profiles available from the pharmacogenomics-based Cancer Therapeutics Response Portal (CTRP) (Seashore-Ludlow et al., 2015). […] These compounds are erastin, (1S,3R)-RSL3, ML162, and M210 (FIG. 3B).
Dataset from Hoek et al of melanoma cell lines was obtained from GSE4845 and batch normalized using ComBat from the R sva package. Dataset from Mica et al for the melanocyte differentiation stage analysis was obtained from GSE45227. Gene expression profiles from samples representing the growth conditions for each specified stage of differentiation based on the original manuscript was used for analysis (day 0 embryonic stem cell, day 6 neural crest cell, day 11 melanoblast, and day 25 melanocyte). Primary melanocyte expression profiles (adult and neonatal) were used as control. Cell line expression profiles from the CCLE and GSDC databases were downloaded from the respective resource websites (http://www.broadinstitute.org/ccle; http://www.cancerrxgene.org/downloads). For each dataset, microarray probes were collapsed to gene symbol to the maximum average probe. To have a gene list compatible for all datasets used, the inventors took an intersection of genes from both RNASeq and microarray chip platforms, resulting in 10,545 genes.
Principal component analysis (PCA) was performed on mean centered data and all statistical analyses were performed in R (http://www.R-project.org/). Projections were calculated by matrix multiplication of the centered data to be projected using the rotation matrix determined from the PCA of the original source data. ANOVA p-values were determined using the non-parametric Kruskal-Wallis test at a significance threshold of 0.05. Reported p-values between pairs of subtypes were determined using Dunn post-hoc testing with multiple hypothesis correction using the Benjamini & Hochberg method. Heatmaps and figures were generated using pheatmap and ggplot2 R packages.

[2] = tested on: human melanoma cell lines of the M series; assay: Cell viability dose-response (CellTiter-Glo) across M series melanoma cell lines; format: cell-based
Experimental: (§1) Human melanoma cell lines of the M series were established from patient's biopsies under UCLA IRB approval #11-003254 as previously described (Søndergaard et al., 2010). Cells were cultured in RPMI 1640 with L-glutamine, 10% fetal bovine serum, and 1% penicillin, streptomycin and fungizone in a water-saturated incubator at 37° C. with 5% CO2. Cells were maintained and tested for mycoplasma, and regularly authenticated to their early passages using GenePrint® 10 System (Promega). Presence of mutations in the genes of interest were checked by OncoMap 3 or lontrone, and was confirmed by PCR and Sanger sequencing as previously described (Wong et al., 2014). Vemurafenib (PLX 4032), erastin, Z-VAD-FMK, R428 and piperlongumine were all purchased from Selleck Chemicals. Deferoxamine was obtained from Sigma-Aldrich. Staurosporine was obtained from Cayman Chemicals. Trolox was obtained from Acros Organics. Recombinant TNFα and IFNγ were both obtained from Peprotech. For the BRAFi timecourse study, M229 was treated with vemurafenib or DMSO for the indicated timepoints at twice the 50% inhibition concentration (500 nM). For the crystal violet assays, cells for seeded at low density in 6-well plates. The next day media was replaced by drug media and replenished every 2-3 days. Plates were stained with crystal violet solution (1% crystal violet, 10% methanol). Control wells were grown for 1 week and stained when 100% confluent.
All cell viability assays were assayed in 96-well format with 5000 cells seeded per well. Dose-response curves were assayed using CellTiter-Glo luminescent cell viability assay (Promega, G7572). For all other measurements of viable cells, a fluorescent resazurin-based (Sigma-Aldrich, R7017) assay (AlamarBlue) was used with fluorescence measured at 570/600 ex/em wavelength. Percentage cell viability is reported as a percentage relative to the negative control treatment. Measurement of dead cells per time was measured by incubating treated cells with the IncuCyte Cytotox Red Reagent and imaging with IncuCyte ZOOM Live-Cell Imaging System (Essen BioScience). […]

[3] = tested on: M229, M397 and M249 melanoma cell lines; assay: Crystal violet staining (clonogenic) assays of long-term or cytokine combination treatment; format: cell-based, human
Experimental: as §1

melanoma cell lines [4] = assay: Immunoblot of differentiation biomarkers (AXL, NGFR, MITF, MART-1) and pERK; format: cell-based, human; settings: IFNγ=100 U/mL, TNFα=1000 U/mL; M229, M397, M249
Experimental: Cells were lysed in modified RIPA buffer (50 mM Tris-HCl (pH 7.5), […], 10 mM β-glycerophosphate, 1% NP-40, 0.25% sodium deoxycholate, 10 mM sodium pyrophosphate, 30 mM sodium fluoride, 1 mM EDTA, 1 mM vanadate, 20 μg/ml aprotinin, 20 μg/ml leupeptin, and 1 mM phenylmethylsulfonyl fluoride). Whole-cell lysates were resolved by SDS-PAGE on TruPAGE 4-15% gradient gels (Sigma-Aldrich) and blotted onto nitrocellulose membranes. Membranes were blocked overnight with 5% milk and then incubated sequentially with primary and then IRDye-conjugated secondary antibodies (Li-Cor). Blots were imaged using the Odyssey Infrared Imaging System (Li-Cor). Primary antibodies used for Western blot analysis were MITF (DGG7V, CST), MART-1 (A103, SCBT), and AXL (C89E7, CST).

[5] = tested on: undifferentiated signature cell lines M296, M410 M229R, and M238R; assay: Cell death and rescue assays (resazurin viability, IncuCyte Cytotox Red, trypan blue exclusion); format: cell-based, human
Experimental: All cell viability assays were assayed in 96-well format with 5000 cells seeded per well. Dose-response curves were assayed using CellTiter-Glo luminescent cell viability assay (Promega, G7572). For all other measurements of viable cells, a fluorescent resazurin-based (Sigma-Aldrich, R7017) assay (AlamarBlue) was used with fluorescence measured at 570/600 ex/em wavelength. Percentage cell viability is reported as a percentage relative to the negative control treatment. Measurement of dead cells per time was measured by incubating treated cells with the IncuCyte Cytotox Red Reagent and imaging with IncuCyte ZOOM Live-Cell Imaging System (Essen BioScience). Trypan blue exclusion was also used for cell death assays.

Molecule | specificity of cell death-inducing compound for dedifferentiated melanoma cells (melanoma cell lines [1]) | also measured
COc1cc(N2CCC(N3CCN(C)CC3)CC2)ccc1Nc1ncc(Cl)c(Nc2ccccc2S(=O)(=O)C(C)C)n1 [NVP-TAE684] | specificity for dedifferentiated melanoma cells | 
COc1cc(/C=C/C(=O)N2CCC=CC2=O)cc(OC)c1OC [piperlongumine] |  | differentiation stage-associated trend in sensitivity ([2]; among subtypes and vemurafenib resistant lines): does not show any differentiation stage-associated trend; also recorded: no difference in sensitivity
CC(C)[C@H](O)C(=O)N[C@@H](C)C(=O)N[C@@H]1C(=O)N(C)CCc2ccccc21 [Semagacestat] | specificity for dedifferentiated melanoma cells | 
AZD4547 | specificity for dedifferentiated melanoma cells | 
CC1(C)CC(=O)c2c(C(F)(F)F)nn(-c3ccc(C(N)=O)c(N[C@H]4CC[C@H](O)CC4)c3)c2C1 [SNX-2112] | specificity for dedifferentiated melanoma cells | 
COc1cc2nccc(Oc3ccc(NC(=O)Nc4ccc(F)cc4F)c(F)c3)c2cc1OC [Ki8751] | specificity for dedifferentiated melanoma cells | 
C=C1[C@@H](C)[C@H]2[C@H](Cc3ccccc3)NC(=O)[C@]23OC(=O)/C=C/[C@H](O)CCC[C@@H](C)C/C=C/[C@H]3[C@@H]1O [cytochalasin B] | specificity for dedifferentiated melanoma cells | 
COc1ccc(N(C(=O)CCl)C(C(=O)NCCc2ccccc2)c2cccs2)cc1Cl (centres unmarked) [ML162] |  | sensitivity (CTRP AUC) with increased dedifferentiation status (melanoma cell lines [1]): increased sensitivity
Cc1onc(C(=O)N2CCN(C(c3ccc(Cl)cc3)c3ccc(Cl)cc3)CC2)c1[N+](=O)[O-] [M210, ML210] |  | sensitivity (CTRP AUC) with increased dedifferentiation status (melanoma cell lines [1]): increased sensitivity
O=c1c2ccccc2nc(/C=C/c2cccnc2)n1Cc1ccccc1 [B02] | specificity for dedifferentiated melanoma cells | 
O=C(c1ccc(/C=C/c2n[nH]c3ccccc23)cc1)N1CCNCC1 [KW-2449] | specificity for dedifferentiated melanoma cells | 
O=C(c1cc(Cc2n[nH]c(=O)c3ccccc23)ccc1F)N1CCN(C(=O)C2CC2)CC1 [olaparib] | specificity for dedifferentiated melanoma cells | 
COC(=O)c1ccc2c(c1)NC(=O)/C2=C(\Nc1ccc(N(C)C(=O)CN2CCN(C)CC2)cc1)c1ccccc1 [nintedanib] | specificity for dedifferentiated melanoma cells | 
Cc1c(N)nc([C@H](CC(N)=O)NC[C@H](N)C(N)=O)nc1C(=O)N[C@H](C(=O)N[C@H](C)[C@@H](O)[C@H](C)C(=O)N[C@H](C(=O)NCCc1nc(-c2nc(C(=O)NCCC[S+](C)C)cs2)cs1)[C@@H](C)O)[C@@H](O[C@@H]1O[C@@H](CO)[C@@H](O)[C@H](O)[C@@H]1O[C@H]1O[C@H](CO)[C@@H](O)[C@H](OC(N)=O)[C@@H]1O)c1c[nH]cn1.[Br-] [bleomycin A2] | specificity for dedifferentiated melanoma cells | 
NC(=O)Nc1cc(-c2cccc(F)c2)sc1C(=O)N[C@H]1CCCNC1 [AZD7762] | specificity for dedifferentiated melanoma cells | 
Cc1cnc(Nc2ccc(OCCN3CCCC3)cc2)nc1Nc1cccc(S(=O)(=O)NC(C)(C)C)c1 [TG-101348] | specificity for dedifferentiated melanoma cells | 
C=CC(=O)Nc1cc2c(Nc3ccc(F)c(Cl)c3)ncnc2cc1OCCCN1CCOCC1 [canertinib] | specificity for dedifferentiated melanoma cells | 
ML334 diastereomer | specificity for dedifferentiated melanoma cells | 
COC(=O)c1ccc([C@H]2c3[nH]c4ccccc4c3C[C@H](C(=O)OC)N2C(=O)CCl)cc1 [RSL3, (1S,3R)-RSL3] |  | sensitivity upon IFNγ cytokine treatment ([3]; M249, higher doses (5 μM erastin, 500 nM RSL3)): increased sensitivity; long-term persisting cells ([3]; combined with vemurafenib (1 μM), 16-24 days, M229, M397, M249): substantial decrease; cell death compared to cytokine-only or untreated cells ([3]; in the presence of TNFα or IFNγ, 7 days): increased cell death; sensitivity (CTRP AUC) with increased dedifferentiation status (melanoma cell lines [1]): increased sensitivity; sensitivity in cell lines with vemurafenib-induced dedifferentiation ([2]; acquired resistance lines (P vs R) or long-term adaptive resistance (44 days)): increased sensitivity; sensitivity with dedifferentiation ([2]; across M series melanoma cell lines): increased sensitivity
CCc1c2c(nc3ccc(O)cc13)-c1cc3c(c(=O)n1C2)COC(=O)[C@]3(O)CC [SN-38] | specificity for dedifferentiated melanoma cells | 
O=C1c2ccccc2-c2nc3nonc3nc21 [SMER-3] | specificity for dedifferentiated melanoma cells | 
Cn1cc(-c2ccc3nnc(Sc4ccc5ncccc5c4)n3n2)cn1 [SGX-523] | specificity for dedifferentiated melanoma cells | 
TNFα |  | differentiation state (up-regulation of AXL, decreased MITF or MART-1) (melanoma cell lines [4]): induced de-differentiation
COc1ccc(C2C(C(=O)Nc3ccccc3)=C(C)N=c3sc(=Cc4cn(Cc5ccccc5)c5ccccc45)c(=O)n32)cc1 (centres unmarked) [BCL-LZH-4] | specificity for dedifferentiated melanoma cells | 
Cc1c[nH]c(-c2cnc(NCCNc3ccc(C#N)cn3)nc2-c2ccc(Cl)cc2Cl)n1 [CHIR-99021] | specificity for dedifferentiated melanoma cells | 
COC(=O)C[C@H](NC(=O)[C@H](C)NC(=O)[C@@H](NC(=O)OCc1ccccc1)C(C)C)C(=O)CF [Z-VAD-FMK] (Cbz-Val-Ala-Asp(OMe)-CH2F) |  | rescue of apoptosis induced by staurosporine ([5]; trypan blue, 24 hr 1 μM staurosporine, Z-VAD-FMK pre-treatment 1 hr, positive control): could rescue; rescue of death induced by erastin treatment ([5]; trypan blue, 24 hr 5 μM erastin, Z-VAD-FMK pre-treatment 1 hr): could not rescue
COc1cc(Nc2ncc(F)c(Nc3ccc4c(n3)NC(=O)C(C)(C)O4)n2)cc(OC)c1OC [tamatinib] | specificity for dedifferentiated melanoma cells | 
Cc1c(C)c2c(c(C)c1O)CCC(C)(C(=O)O)O2 (centres unmarked) [Trolox] |  | rescue of erastin-induced decrease in cell viability ([5]; 100 μM DFO or 150 μM Trolox with erastin): almost completely rescued
B1 |  | differentiation state (up-regulation of AXL, decreased MITF or MART-1) (melanoma cell lines [4]): induced de-differentiation
